Results reported in patent US9193673B2, “Derivatives of mesalazine, process of their preparation and their use in the treatment of intestinal inflammatory diseases” (SOFAR SPA, priority 2010, dated 2015).
Where “and” joins values, the source holds several entries; their conditions need not be identical. Identical values can stand only once. Entries after “also recorded” stand apart in the source; their conditions may differ.

Key:
DSS-induced colitis = DSS-induced colitis model; assay type: in vivo; conditions: DSS 3% C57BL/6 mice
Source text: Experimental colitis models, such as the dextran sodium sulphate (DSS) model, are routinely available in our laboratory (1, 2). […] DSS-induced inflammation of the colon originates in the distal colon, progressing to involve the whole colon and in severe cases the caecum. In addition, the inflammation is confined to the mucosa and is generally not transmural. Furthermore, DSS-induced inflammation is not dependent on the presence of any specific intestinal bacterial flora.
Colon inflammation has been induced in C57BL/6 mice by the administration of DSS in the drinking water at concentrations of 3%, for 5 days.
Different parameters have been measured to test the efficacy of the selected compounds which are: • Clinical evaluation: daily recording weight and clinical activity (anal bleeding, presence of diarrhoea). This parameter has been quantified as percentage of body weight and DAI (Disease Activity Index) relating to anal bleeding and presence of diarrhoea. The lower the DAI is, the lower the anal bleeding is, thus better the therapeutic effect is. • Endoscopic evaluation: mice underwent endoscopy at the end of the treatment. This step is very important as most of the drugs used in human inflammatory bowel disease aim to achieve mucosal healing. • Histological colitis assessment: mice have been sacrificed at the end of the treatment, colons have been removed and histopathological analysis has been performed to assess the extent of tissue damage and recruitment of immune cells.
The therapeutic effect has been evaluated with different experimental procedures (a)-c)) representing either the active phase (a)) or the remission phase (b)-c)) of an intestinal inflammatory disease at different doses: • a) treatment of acute phase at 200 mg/kg/day • b) treatment of remission phase at 50 mg/kg/day • c) treatment of remission phase at 100 mg/kg/day […]

[1] = Hydrolysis in rat intestine preserved in different conditions; assay type: in vitro ADME
Protocol: Such study is conducted with the aim of surveying the stability of the compound (IV) in rat intestine homogenate preserved in different conditions: frozen at […] and at −80° C.
(§1) The stability of the compound (IV) is compared to that of known reference standards.

[2] = Stability in simulated gastric and simulated intestinal fluids; assay type: physicochemical
Protocol: Such study is conducted with the aim of evaluating the stability of the compound (IV) at […] in absence of enzymes of the intestinal bacterial flora.
as §1

Caco2 cellular line = assay: Permeability on the Caco2 cellular line; assay type: in vitro ADME
Protocol: (§2) Such study is conducted with the aim of evaluating the capacity of the molecule to permeate the intestinal epithelium and be absorbed thereby evaluating the Papp (apparent permeability coefficient). The Papp of the compound (IV) is compared to that of the known reference standards.

[3] = Permeability on the Caco2 cellular line; assay type: in vitro ADME; conditions: human, Caco-2, Caco2
Protocol: as §2

[4] = Stability in human plasma (hydrolysis by plasma esterases); assay type: in vitro ADME
Protocol: (§3) Such study is conducted with the aim of evaluating possible hydrolysis of the compound (IV) by the plasma esterases. The percentage of hydrolysis of the compound (IV) is compared to that of known reference standards.

[5] = Stability in rat plasma (hydrolysis by plasma esterases); assay type: in vitro ADME
Protocol: as §3

[6] = Stability in murine intestinal homogenate; assay type: in vitro ADME, rat
Protocol: Such study is conducted with the aim of evaluating the stability of the compound (IV) in intestinal homogenate.
as §1

[7] = Stability of the compound (IV) in storage at 25° C. (60% RH) and at 40° C. (75% RH); assay type: physicochemical; conditions: for Titre % Mean / Titre %: 3 months; for Titre % Mean: mean of samples; for Titre %: single samples
Protocol: The object of such study is the evaluation of the stability of the compound (IV) kept at a temperature equivalent to 25° C. (60% RH) and at 40° C. (75% RH). In particular, such study aims at evaluating the titre of the compound (IV) in the stability test at 25° C. (60% RH) at 3, 6, 9, 12, 18, 24, 36, 48, 60 months and in the stability test accelerated at 40° C. (75% RH) at 3, 6, 9, 12 months.
The compound (IV) is divided into 10 Eppendorfs numbered from 1 to 10, containing about 50 mg of product and stored in a cellar at 25° C. 60% RH.
Other 4 Eppendorfs numbered from 11 to 14, containing about 50 mg of product are introduced into an oven at a temperature equivalent to 40° C. 75% RH.

- Metabolism in fresh rat intestine homogenate ([1]; fresh homogenate): metabolised quickly
- Stability in rat intestine (residue %) ([1]; fresh homogenate, 15 min): 0.030 ± 0.015%
- Stability in rat intestine (residue %) ([1]; fresh homogenate, 30 min): 0.031 ± 0.004%
- Stability in rat intestine (residue %) ([1]; fresh homogenate, 60 min): 0.047 ± 0.021%
- Stability in rat intestine (residue %) ([1]; homogenate 4° C., 15 min): 0.046 ± 0.004%
- Stability in rat intestine (residue %) ([1]; homogenate 4° C., 30 min): 0.046 ± 0.022%
- Stability in rat intestine (residue %) ([1]; homogenate 4° C., 60 min): 0.064 ± 0.008%
- Stability in rat intestine (residue %) ([1]; homogenate −80° C., 15 min): 0.024 ± 0.007%
- Stability in rat intestine (residue %) ([1]; homogenate −80° C., 30 min): 0.034 ± 0.001%
- Stability in rat intestine (residue %) ([1]; homogenate −80° C., 60 min): 0.470 ± 0.012%
- Stability in rat intestine (residue %) ([1]; intestine −80° C., 15 min): 0.145 ± 0.029%
- Stability in rat intestine (residue %) ([1]; intestine −80° C., 30 min): 0.091 ± 0.038%
- Stability in rat intestine (residue %) ([1]; intestine −80° C., 60 min): 0.098 ± 0.002%
- % Residue ([2]; SGF, 30 min incubation): 97.3 ± 1.1%
- % Residue ([2]; SGF, 60 min incubation): 99.9 ± 0.9%
- % Residue ([2]; SIF, 30 min incubation): 97.4 ± 4.1%
- % Residue ([2]; SIF, 60 min incubation): 103.2 ± 3.5%
- Stability in SIF and SGF ([2]; both media): stable in both media
- A→B Mean mass balance % (Caco2 cellular line; A→B, Caco2): 69%
- B→A Mean mass balance % (Caco2 cellular line; B→A, Caco2): 99%
- BA/AB ratio (Caco2 cellular line; Caco2): 0.41
- Permeability (Caco2 cellular line; Caco2): poor permeability
- BA/AB ratio (Caco2 cellular line; Caco2, listed as compound (IV)): < 1
- Substrate of P-gp (glycoprotein P) (Caco2 cellular line; from BA/AB ratio, Caco2): does not seem to be a substrate of P-gp
- Permeability class (Caco2 cellular line; through the basolateral membrane of the Caco2 cell line): low
- Papp A→B ([3]; Apical (pH 6.5) → Basolateral (pH 7.4), read-out: Papp A→B (nm/sec) Mean ± SD): 5.9 ± 1.2 nm/s
- Papp B→A ([3]; B→A, read-out: Papp B→A (nm/sec) Mean ± SD): 2.4 ± 0.3 nm/s
- % Residue at 60 min ([4]; Human plasma, 60 min): 32.7 ± 2.6%
- Hydrolysis in plasma ([4]; human plasma): high hydrolysis percentage
- % hydrolysed ([4]; human plasma, after 1 hour of incubation): 67.3%
- % Residue at 60 min ([5]; Rat plasma, 60 min): 8.5 ± 2.0%
- Hydrolysis in plasma ([5]; murine plasma): high hydrolysis percentage
- % hydrolysed ([5]; murine plasma, after 1 hour of incubation): 91.5%
- Residue percentage ([6]; rat intestinal homogenate, 25 μM, 30 min): 9.8 ± 1.1%
- Residue percentage ([6]; rat intestinal homogenate, 25 μM, 1 hr): 12.2 ± 1.6%
- Residue percentage ([6]; rat intestinal homogenate, 25 μM, 2 hrs): 10.1 ± 4.4%
- Residue percentage ([6]; rat intestinal homogenate, 25 μM, 4 hrs): 24.5 ± 1.3(*) %
- Residue percentage ([6]; rat intestinal homogenate, 50 μM, 30 min): 5.6 ± 0.6%
- Residue percentage ([6]; rat intestinal homogenate, 50 μM, 1 hr): 4.4 ± 1.1%
- Residue percentage ([6]; rat intestinal homogenate, 50 μM, 2 hrs): 7.3 ± 1.0%
- Residue percentage ([6]; rat intestinal homogenate, 50 μM, 4 hrs): 5.5 ± 1.1%
- Hydrolysis ([6]; tested at two concentrations (25 and 50 μM)): 90-95%
- Titre % Mean ([7]; 25° C. 60% RH): 98.1%
- Titre % ([7]; 25° C. 60% RH): 98.2% and 98.1%
- Titre % Mean ([7]; 40° C. 75% RH): 101.2%
- Titre % ([7]; 40° C. 75% RH): 99.8% and 102.6%
- Titre ([7]; time t=0): 99.3%
SMILES: CCCC(=O)Oc1ccc(N)cc1C(=O)O.Cl [Compound (IV), 5-amino-2-(butyryloxy)benzoic acid]
- Therapeutic efficiency (DAI, endoscopic and histological scores) (DSS-induced colitis; a) acute (active) phase, 200 mg/kg/day orally): comparable therapeutic efficiency
- Therapeutic activity (DAI, endoscopic and histological scores) vs 5-ASA, butyric acid, and their combined administration (DSS-induced colitis; b) remission phase, 50 mg/kg/day orally): better therapeutic activity
- Therapeutic activity (DAI, endoscopic and histological scores) vs 5-ASA, butyric acid, and their combined administration (DSS-induced colitis; c) remission phase, 100 mg/kg/day orally): better therapeutic activity
- Stability in the rat intestine ([6]; rat intestinal homogenate): very unstable in the rat intestine; also recorded: quickly metabolised in the rat intestine
- Stability in storage ([7]; 25° C. 60% RH and 40° C. 75% RH): does not seem to be subjected to considerable modifications; also recorded: stable in storage
